Literature values as cited in patent US20240082165A1, “METHODS AND COMPOSITIONS FOR PRECISION RELEASE OF PROBIOTICS TO IMPROVE HUMAN HEALTH” (SEED HEALTH INC., priority 2021, published 2024).

Columns and labels:
[1] = delivered directly in the colon, overweight individuals
[2] = synthesized ligand, mice

Compound	energy intake, adiposity, liver lipid, plasma PYY and GLP-1 [1]	protection from colitis [2]
CCC(=O)O [propionate]	reduced energy intake, adiposity, and lipid liver content, and increased plasma levels of peptide YY (PYY) and glucagon-like peptide 1 (GLP-1)	
M-tri-Lys		protected mice from colitis in a NOD2-dependent but MyD88-independent manner
